Values joined by “and” are separate entries in the source; they are usually repeats but may differ in a detail not shown here. Equal values may be shown once.
Tests used:
hCB1 receptor = hCB1 receptor (Homo sapiens, UniProt P21554); assay: hCB1 Gαq16-coupled calcium mobilization assay in CHO-K1 cells; format: cell-based; conditions: for EC50: hCB1 Ca EC50, CHO cells expressing hCB1 and Gαq16, calcium mobilization
hCB2 receptor = hCB2 receptor (Homo sapiens, UniProt P34972); assay: hCB2 Gαq16-coupled calcium mobilization assay in CHO-K1 cells; format: cell-based; conditions: hCB2 Ca EC50, CHO cells expressing hCB2 and Gαq16, calcium mobilization
Chain of hCB2 receptor (P34972 whole entry): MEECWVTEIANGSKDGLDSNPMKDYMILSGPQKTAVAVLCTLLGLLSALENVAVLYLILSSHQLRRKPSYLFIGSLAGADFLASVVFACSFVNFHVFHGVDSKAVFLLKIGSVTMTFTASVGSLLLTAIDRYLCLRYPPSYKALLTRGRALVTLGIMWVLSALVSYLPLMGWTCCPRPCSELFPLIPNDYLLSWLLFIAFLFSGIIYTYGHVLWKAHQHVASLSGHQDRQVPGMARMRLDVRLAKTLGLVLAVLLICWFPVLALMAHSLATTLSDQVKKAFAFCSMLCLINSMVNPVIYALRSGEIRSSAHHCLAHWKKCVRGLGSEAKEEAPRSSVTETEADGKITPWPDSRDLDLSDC

Chain of hCB1 receptor (P21554 whole entry): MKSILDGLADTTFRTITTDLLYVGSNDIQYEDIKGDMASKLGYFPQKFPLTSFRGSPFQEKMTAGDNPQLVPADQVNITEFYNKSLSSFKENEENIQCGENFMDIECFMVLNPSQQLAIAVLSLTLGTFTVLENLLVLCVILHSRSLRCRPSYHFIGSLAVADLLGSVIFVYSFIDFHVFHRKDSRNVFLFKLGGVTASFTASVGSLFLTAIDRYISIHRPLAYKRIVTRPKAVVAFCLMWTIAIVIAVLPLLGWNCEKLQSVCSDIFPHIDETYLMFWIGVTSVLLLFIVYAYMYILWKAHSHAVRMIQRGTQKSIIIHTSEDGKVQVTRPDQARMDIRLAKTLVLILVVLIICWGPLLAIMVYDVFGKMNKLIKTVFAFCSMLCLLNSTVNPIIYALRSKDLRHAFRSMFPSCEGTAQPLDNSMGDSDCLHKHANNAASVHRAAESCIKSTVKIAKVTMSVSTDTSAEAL

| Compound | EC50 (hCB1 receptor) [nM] | EC50 (hCB2 receptor) | hCB1 Ca Emax (hCB1 receptor; percentage of the maximum CP55,940 signal, CHO cells expressing hCB1 and Gαq16) [%] |
| --- | --- | --- | --- |
| NC(=O)N1CCC[C@@H](CNC(=O)c2nn(Cc3ccc(F)cc3)c3ccccc23)C1 [Compound 29, N-{[(3S)-1-Carbamoylpiperidin-3-yl]methyl}-1-[(4-fluorophenyl)methyl]-1H-indazole-3-carboxamide] | 950 ± 108 | 178 ± 45 nM |  |
| NC(=O)C1(NC(=O)c2nn(Cc3ccc(F)cc3)c3ccccc23)CCCC1 [Compound 9, N-(1-Carbamoylcyclopentyl)-1-[(4-fluorophenyl)methyl]-1H-indazole-3-carboxamide] | 1240 ± 17 | 63 ± 6 nM |  |
| CC(C)(C#N)CCCn1nc(C(=O)NC(C)(C)c2cccc(C(N)=O)c2)c2ccccc21 [Compound 57, N-[2-(3-Carbamoylphenyl)propan-2-yl]-1-(4-cyano-4,4-dimethylbutyl)-1H-indazole-3-carboxamide] | 742 ± 50 | > 10000 nM |  |
| CC(C)(NC(=O)c1nn(CCC2CCCC2)c2ccccc12)c1cccc(C(N)=O)c1 [Compound 49, N-[2-(3-Carbamoylphenyl)propan-2-yl]-1-(2-cyclopentylethyl)-1H-indazole-3-carboxamide] | 383 ± 163 | 189 ± 10 nM |  |
| NC(=O)N1CCC[C@@H](NC(=O)c2nn(Cc3ccc(F)cc3)c3ccccc23)C1 [Compound 39, N-[(3R)-1-Carbamoylpiperidin-3-yl]-1-[(4-fluorophenyl)methyl]-1H-indazole-3-carboxamide] |  | 207 ± 66 nM |  |
| CN(CC(N)=O)C(=O)C(C)(C)NC(=O)c1nn(Cc2ccc(F)cc2)c2ccccc12 [Compound 13, N-(Carbamoylmethyl)-2-({1-[(4-fluorophenyl)methyl]-1H-indazol-3-yl}formamido)-N,2-dimethylpropanamide] | 282 ± 73 | 74 ± 19 nM |  |
| O=C(NCc1ccc(F)cc1)c1nn(Cc2ccc(F)cc2)c2ccccc12 [Compound 18, N,1-Bis[(4-fluorophenyl)methyl]-1H-indazole-3-carboxamide] | 181 ± 20 | 168 ± 24 nM |  |
| CC1(NC(=O)c2nn(Cc3ccc(F)cc3)c3ccccc23)CCCN(CC(N)=O)C1 (stereo not shown) [Compound 42, N-[1-(Carbamoylmethyl)-3-methylpiperidin-3-yl]-1-[(4-fluorophenyl)methyl]-1H-indazole-3-carboxamide] | 39 ± 1 | 41 ± 14 nM |  |
| NC(=O)[C@@H]1CCCN1C(=O)C1(NC(=O)c2nn(Cc3ccc(F)cc3)c3ccccc23)CC1 [Compound 16, N-{1-[(2S)-2-Carbamoylpyrrolidine-1-carbonyl]cyclopropyl}-1-[(4-fluorophenyl)methyl]-1H-indazole-3-carboxamide] | 168 ± 13 | 190 ± 88 nM |  |
| O=C(NCC1CCCCC1)c1nn(Cc2ccc(F)cc2)c2ccccc12 [Compound 28, N-(Cyclohexylmethyl)-1-[(4-fluorophenyl)methyl]-1H-indazole-3-carboxamide] | 17 ± 1 | 28 ± 8 nM |  |
| NC(=O)c1cccc(C2(NC(=O)c3nn(Cc4ccc(F)cc4)c4ccccc34)CC2)c1 [Compound 27, N-[1-(3-Carbamoylphenyl)cyclopropyl]-1-[(4-fluorophenyl)methyl]-1H-indazole-3-carboxamide] | 2740 ± 939 | 96 ± 6 nM |  |
| NC(=O)CN1CCC[C@@H](CNC(=O)c2nn(Cc3ccc(F)cc3)c3ccccc23)C1 [Compound 32, N-{[(3S)-1-(Carbamoylmethyl)piperidin-3-yl]methyl}-1-[(4-fluorophenyl)methyl]-1H-indazole-3-carboxamide] | 168 ± 23 | 150 ± 6 nM |  |
| NC(=O)N1CCC[C@H](NC(=O)c2nn(Cc3ccc(F)cc3)c3ccccc23)C1 [Compound 38, N-[(3S)-1-Carbamoylpiperidin-3-yl]-1-[(4-fluorophenyl)methyl]-1H-indazole-3-carboxamide] | 541 ± 52 | 59 ± 1 nM |  |
| O=C(NC1CCCCC1)c1nn(Cc2ccc(F)cc2)c2ccccc12 [Compound 37, N-Cyclohexyl-1-[(4-fluorophenyl)methyl]-1H-indazole-3-carboxamide] | 23 ± 2 | 14 ± 3 nM |  |
| CC(C)(CN1CCC[C@H]1C(N)=O)NC(=O)c1nn(Cc2ccc(F)cc2)c2ccccc12 [Compound 17, N-{1-[(2S)-2-Carbamoylpyrrolidin-1-yl]-2-methylpropan-2-yl}-1-[(4-fluorophenyl)methyl]-1H-indazole-3-carboxamide] | 32 ± 15 | 101 ± 34 nM |  |
| CC(C)(NC(=O)c1nn(CCc2ccc(F)cc2)c2ccccc12)c1cccc(C(N)=O)c1 [Compound 46, N-[2-(3-Carbamoylphenyl)propan-2-yl]-1-[2-(4-fluorophenyl)ethyl]-1H-indazole-3-carboxamide] | > 10000 | > 10000 nM |  |
| CNC(=O)[C@@H](NC(=O)c1nn(Cc2ccc(F)cc2)c2ccccc12)C(C)C [Compound 6, (2S)-2-({1-[(4-Fluorophenyl)methyl]-1H-indazol-3-yl}formamido)-N,3-dimethylbutanamide] | 12 ± 2 | 30 ± 1 nM |  |
| NC(=O)CN1CCC[C@@H](NC(=O)c2nn(Cc3ccc(F)cc3)c3ccccc23)C1 [Compound 41, N-[(3R)-1-(Carbamoylmethyl)piperidin-3-yl]-1-[(4-fluorophenyl)methyl]-1H-indazole-3-carboxamide] | 803 ± 73 | 33 ± 1 nM |  |

| Compound | EC50 (hCB1 receptor) [nM] | EC50 (hCB2 receptor) | hCB1 Ca Emax (hCB1 receptor; percentage of the maximum CP55,940 signal, CHO cells expressing hCB1 and Gαq16) [%] |
| --- | --- | --- | --- |
| NC(=O)c1ccc(CNC(=O)c2nn(Cc3ccc(F)cc3)c3ccccc23)cc1 [Compound 21, N-[(4-Carbamoylphenyl)methyl]-1-[(4-fluorophenyl)methyl]-1H-indazole-3-carboxamide] | > 10000 | 1380 ± 149 nM |  |
| CCOCCn1nc(C(=O)NC(C)(C)c2cccc(C(N)=O)c2)c2ccccc21 [Compound 58, N-[2-(3-Carbamoylphenyl)propan-2-yl]-1-(2-ethoxyethyl)-1H-indazole-3-carboxamide] | > 10000 | > 10000 nM |  |
| CC(C)(NC(=O)c1nn(Cc2ccc(F)cc2)c2ccccc12)C(=O)Nc1cccc(C(N)=O)c1 [Compound 12, 3-[2-({1-[(4-Fluorophenyl)methyl]-1H-indazol-3-yl}formamido)-2-methylpropanamido]benzamide] | 360 ± 88 | 360 ± 48 nM |  |
| CNC(=O)C(C)(C)NC(=O)c1nn(Cc2ccc(F)cc2)c2ccccc12 [Compound 11, 2-({1-[(4-Fluorophenyl)methyl]-1H-indazol-3-yl}formamido)-N,2-dimethylpropanamide] | 182 ± 6 | 21 ± 3 nM |  |
| COCCCn1nc(C(=O)NC(C)(C)c2cccc(C(N)=O)c2)c2ccccc21 [Compound 59, N-[2-(3-Carbamoylphenyl)propan-2-yl]-1-(3-methoxypropyl)-1H-indazole-3-carboxamide] | > 10000 | 2560 ± 492 nM |  |
| NC(=O)c1cccc(CNC(=O)c2nn(Cc3ccc(F)cc3)c3ccccc23)c1 [Compound 20, N-[(3-Carbamoylphenyl)methyl]-1-[(4-fluorophenyl)methyl]-1H-indazole-3-carboxamide] | 38 ± 14 | 170 nM and 172 nM | 104 ± 6 |
| CC(C)(NC(=O)c1nn(Cc2ccc(F)cc2)c2ccccc12)C(=O)N1CCC[C@@H]1C(N)=O [Compound 15, N-{1-[(2R)-2-Carbamoylpyrrolidin-1-yl]-2-methyl-1-oxopropan-2-yl}-1-[(4-fluorophenyl)methyl]-1H-indazole-3-carboxamide] | > 10000 | > 10000 nM |  |
| NC(=O)CN1CCC[C@H](CNC(=O)c2nn(Cc3ccc(F)cc3)c3ccccc23)C1 [Compound 33, N-{[(3R)-1-(Carbamoylmethyl)piperidin-3-yl]methyl}-1-[(4-fluorophenyl)methyl]-1H-indazole-3-carboxamide] | 239 ± 76 | 170 ± 24 nM |  |
| CC(=O)Nc1cccc(C(C)(C)NC(=O)c2nn(Cc3ccc(F)cc3)c3ccccc23)c1 [Compound 25, N-[2-(3-Acetamidophenyl)propan-2-yl]-1-[(4-fluorophenyl)methyl]-1H-indazole-3-carboxamide] |  | 68 ± 1 nM |  |
| CC(C)(NC(=O)c1nn(Cc2ccc(F)cc2)c2ccccc12)c1cccc(NC(N)=O)c1 [Compound 26, N-{2-[3-(Carbamoylamino)phenyl]propan-2-yl}-1-[(4-fluorophenyl)methyl]-1H-indazole-3-carboxamide] | 590 ± 152 |  |  |
| C[C@@H](NC(=O)c1nn(Cc2ccc(F)cc2)c2ccccc12)c1cccc(C(N)=O)c1 [Compound 23, N-[(1R)-1-(3-Carbamoylphenyl)ethyl]-1-[(4-fluorophenyl)methyl]-1H-indazole-3-carboxamide] | 433 ± 84 |  |  |
| CC(C)(NC(=O)c1nn(Cc2ccc(Cl)cc2)c2ccccc12)c1cccc(C(N)=O)c1 [Compound 43, N-[2-(3-Carbamoylphenyl)propan-2-yl]-1-[(4-chlorophenyl)methyl]-1H-indazole-3-carboxamide] | > 10000 | > 10000 nM |  |
| NC(=O)N1CCC[C@H](CNC(=O)c2nn(Cc3ccc(F)cc3)c3ccccc23)C1 [Compound 30, N-{[(3R)-1-Carbamoylpiperidin-3-yl]methyl}-1-[(4-fluorophenyl)methyl]-1H-indazole-3-carboxamide] | 671 ± 161 |  |  |
| NC(=O)[C@@H](NC(=O)c1nn(Cc2ccc(F)cc2)c2ccccc12)c1ccccc1 [Compound 7, (2S)-2-({1-[(4-Fluorophenyl)methyl]-1H-indazol-3-yl}formamido)-2-phenylacetamide] | 178 ± 55 | 42 ± 9 nM |  |
| NC(=O)c1ccccc1CNC(=O)c1nn(Cc2ccc(F)cc2)c2ccccc12 [Compound 19, N-[(2-Carbamoylphenyl)methyl]-1-[(4-fluorophenyl)methyl]-1H-indazole-3-carboxamide] | 423 ± 190 | 52 ± 22 nM |  |
| C[C@H](NC(=O)c1nn(Cc2ccc(F)cc2)c2ccccc12)c1cccc(C(N)=O)c1 [Compound 22, N-[(1S)-1-(3-Carbamoylphenyl)ethyl]-1-[(4-fluorophenyl)methyl]-1H-indazole-3-carboxamide] | 26 ± 2 |  |  |
| CC(c1ccc(F)cc1)n1nc(C(=O)NC(C)(C)c2cccc(C(N)=O)c2)c2ccccc21 (stereo not shown) [Compound 47, N-[2-(3-Carbamoylphenyl)propan-2-yl]-1-[1-(4-fluorophenyl)ethyl]-1H-indazole-3-carboxamide] | 243 ± 37 |  |  |

Reference: paper PMC12439760 (Bioorganic & medicinal chemistry, 2025)
